Data reported in publication PMC8359378 (British Journal of Clinical Pharmacology, 2021).
pKi: −log10 of the molar value.

Tests used:
[1] = tested on: activated partial thromboplastin time (aPTT); assay: activated partial thromboplastin time; assay type: in vivo, human
human FXIa = conditions: competitive and reversible inhibition; cited from earlier work
[2] = tested on: prothrombin time [PT], international normalised ratio [INR]; assay: prothrombin time; assay type: in vivo, human; conditions: any of the dose levels tested in Part A or Part B
[3] = plasma pharmacokinetics in first‐in‐human study; assay type: in vivo; conditions: for Tmax: human, plasma
[4] = tested on: monkey nail‐cut bleeding model; conditions: preclinical; cited from earlier work
[5] = molecular target: factor XI coagulation activity (FXI:C) (Homo sapiens, UniProt P03951); assay: factor XI coagulation activity; assay type: in vivo
[6] = tested on: monkey arteriovenous shunt model; conditions: preclinical; cited from earlier work
[7] = Part A, single dose 1 mg, fasted
[8] = Part A, single dose 5 mg, fasted
[9] = Part A, single dose 20 mg, fasted
[10] = Part A, single dose 80 mg, fasted
[11] = Part A, single dose 150 mg, fasted
[12] = Part A, single dose 300 mg, fasted
[13] = Part A, single dose of 20–300 mg
[14] = Part B, 80 mg QD for 14 days, fed
[15] = Part B, 150 mg QD for 14 days, fed
[16] = Part B, first dose of 80, 150 and 250 mg

factor XI coagulation activity (FXI:C), sequence (P03951 388-625 limits assumed): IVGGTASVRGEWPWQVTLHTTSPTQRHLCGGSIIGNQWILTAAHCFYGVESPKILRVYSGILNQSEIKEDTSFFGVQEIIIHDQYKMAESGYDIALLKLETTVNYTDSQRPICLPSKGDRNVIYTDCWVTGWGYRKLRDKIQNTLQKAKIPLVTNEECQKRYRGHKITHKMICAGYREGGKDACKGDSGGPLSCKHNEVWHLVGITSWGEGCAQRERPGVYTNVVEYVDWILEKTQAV
factor XI coagulation activity (FXI:C), sequence (P03951 19-387 partner limits assumed): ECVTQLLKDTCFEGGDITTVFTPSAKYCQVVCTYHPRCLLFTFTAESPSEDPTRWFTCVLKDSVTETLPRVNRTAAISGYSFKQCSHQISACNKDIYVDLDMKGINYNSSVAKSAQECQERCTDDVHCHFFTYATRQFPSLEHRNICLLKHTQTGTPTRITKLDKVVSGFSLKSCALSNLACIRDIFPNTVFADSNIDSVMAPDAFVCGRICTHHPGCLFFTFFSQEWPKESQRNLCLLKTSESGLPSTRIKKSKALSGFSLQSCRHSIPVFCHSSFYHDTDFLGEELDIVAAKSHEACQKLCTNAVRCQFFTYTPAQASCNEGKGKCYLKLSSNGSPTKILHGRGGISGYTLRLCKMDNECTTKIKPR

Nc1ccc(-c2nc([C@H]3CCc4cc(-c5cc(Cl)ccc5-n5cnnn5)cc(=O)n43)c(F)[nH]2)c(F)n1 [ONO‐7684]
time of maximal prolongation of aPTT post‐dose ([1]; Part A, 80 mg fed group): approximately 8 hours
aPTT Day 1 24 hours RTB, mean ± SD [1, 7]: 1.00 ± 0.034
aPTT Day 1 24 hours RTB, mean ± SD [1, 8]: 1.10 ± 0.061
aPTT Maximum on treatment RTB, mean ± SD [1, 8]: 1.18 ± 0.054
aPTT Day 1 24 hours RTB, mean ± SD [1, 9]: 1.15 ± 0.119
aPTT Maximum on treatment RTB, mean ± SD [1, 9]: 1.40 ± 0.016
aPTT Day 1 24 hours RTB, mean ± SD [1, 10]: 1.54 ± 0.111
aPTT Maximum on treatment RTB, mean ± SD [1, 10]: 1.83 ± 0.172
aPTT Day 1 24 hours RTB, mean ± SD ([1]; Part A, single dose 80 mg, fed): 1.61 ± 0.128
aPTT Maximum on treatment RTB, mean ± SD ([1]; Part A, single dose 80 mg, fed): 1.74 ± 0.163
aPTT Day 1 24 hours RTB, mean ± SD [1, 11]: 1.63 ± 0.031
aPTT Maximum on treatment RTB, mean ± SD [1, 11]: 1.97 ± 0.078
aPTT Day 1 24 hours RTB, mean ± SD [1, 12]: 1.99 ± 0.139
time of maximal prolongation of aPTT post‐dose [1, 13]: approximately 4 hours
aPTT Maximum on treatment RTB, mean ± SD [1, 14]: 2.07 ± 0.152
aPTT Day 1 24 hours RTB, mean ± SD ([1]; Part B, 80 mg QD, fed): 1.53 ± 0.119
aPTT Day 14 24 hours RTB, mean ± SD ([1]; Part B, 80 mg QD, fed): 1.87 ± 0.163
aPTT Maximum on treatment RTB, mean ± SD [1, 15]: 2.35 ± 0.275
aPTT Day 1 24 hours RTB, mean ± SD ([1]; Part B, 150 mg QD, fed): 1.78 ± 0.174
aPTT Day 14 24 hours RTB, mean ± SD ([1]; Part B, 150 mg QD, fed): 2.06 ± 0.261
aPTT Day 1 24 hours RTB, mean ± SD ([1]; Part B, 250 mg QD, fed): 2.06 ± 0.091
aPTT Day 14 24 hours RTB, mean ± SD ([1]; Part B, 250 mg QD, fed): 2.53 ± 0.146
time of maximal aPTT prolongation post‐dose [1, 16]: approximately 4 hours
pKi (human FXIa): 8.70
effect on INR [2]: did not significantly affect
effect on PT [2]: did not significantly affect
time of peak mean plasma concentration post‐dose ([3]; Part A, 80 mg fed cohort): approximately 8 hours
fold increase of AUCinf with a 300‐fold increase in dose ([3]; Part A, 1–300 mg): ~416 fold
fold increase of Cmax with a 300‐fold increase in dose ([3]; Part A, 1–300 mg): about 308 fold
time of peak mean plasma concentration post‐dose ([3]; Part A, each cohort except 80 mg fed): approximately 4 hours
AUC24 accumulation GM ratio Day 14 versus Day 1 ([3]; Part B, 80 mg QD): 2.33
Cmax accumulation GM ratio Day 14 versus Day 1 ([3]; Part B, 80 mg QD): 1.88
AUC24 accumulation GM ratio Day 14 versus Day 1 ([3]; Part B, 150 mg QD): 2.22
Cmax accumulation GM ratio Day 14 versus Day 1 ([3]; Part B, 150 mg QD): 1.90
AUC24 accumulation GM ratio Day 14 versus Day 1 ([3]; Part B, 250 mg QD): 2.41
Cmax accumulation GM ratio Day 14 versus Day 1 ([3]; Part B, 250 mg QD): 2.09
fold increase of AUC24 with a 3.1‐fold increase in dose ([3]; Part B, 80–250 mg QD, Day 14): approximately 3.6 fold
fold increase of Cmax with a 3.1‐fold increase in dose ([3]; Part B, 80–250 mg QD, Day 14): approximately 3.6 fold
time for plasma concentrations to decrease to baseline levels ([3]; Part B, after final dose on Day 14): ≤ 72 h
time to reach steady state ([3]; Part B, daily dosing): ≤ 6 days
Tmax ([3]; oral, median range across cohorts, Part A, fasted cohorts): 2.5 to 4 h
Tmax ([3]; oral, median range across cohorts, Part B, Day 1): 2.5 to 4 h
Tmax ([3]; oral, median range across cohorts, Part B, Day 14): 4 to 4.01 h
Tmax ([3]; po, 1 mg, median (range), Part A, single dose 1 mg, fasted): 2.5 h
Tmax ([3]; po, 5 mg, median (range), Part A, single dose 5 mg, fasted): 3.5 h
Tmax ([3]; po, 80 mg, median (range), Part A, single dose 80 mg, fed): 7.05 h
Tmax ([3]; po, 80 mg, median (range), Part B, 80 mg QD fed, Day 1): 2.5 h
Tmax ([3]; po, 80 mg, median (range), Part B, 80 mg QD fed, Day 14): 4.01 h
Tmax ([3]; po, 150 mg, median (range), Part B, 150 mg QD fed, Day 1): 4 h
Tmax ([3]; po, 150 mg, median (range), Part B, 150 mg QD fed, Day 14): 4.01 h
Tmax ([3]; po, 250 mg, median (range), Part B, 250 mg QD fed, Day 1): 4 h
Tmax ([3]; po, 250 mg, median (range), Part B, 250 mg QD fed, Day 14): 4 h
bleeding time [4]: did not prolong bleeding time
time of maximal inhibition of FXI:C post‐dose ([5]; Part A, 80 mg fed group): approximately 8 hours
time of return of FXI:C and aPTT to near baseline levels post‐dose ([5]; Part A, 80, 150 and 300 mg): ≤ 72 h
time the effects on FXI:C and aPTT were maintained ([5]; Part A, 80, 150 and 300 mg): up to 24 hours
FXI:C Day 1 24 hours RTB, mean ± SD [5, 7]: 0.95 ± 0.141
FXI:C Day 1 24 hours inhibition, mean ± SD [5, 7]: 5 ± 14.1%
FXI:C Maximum on treatment inhibition, mean ± SD [5, 7]: 13 ± 7.7%
FXI:C Day 1 24 hours RTB, mean ± SD [5, 8]: 0.95 ± 0.049
FXI:C Day 1 24 hours inhibition, mean ± SD [5, 8]: 5 ± 4.9%
FXI:C Maximum on treatment inhibition, mean ± SD [5, 8]: 10 ± 2.6%
FXI:C Minimum on treatment RTB, mean ± SD [5, 8]: 0.90 ± 0.026
FXI:C Day 1 24 hours RTB, mean ± SD [5, 9]: 0.95 ± 0.185
FXI:C Day 1 24 hours inhibition, mean ± SD [5, 9]: 5 ± 18.5%
FXI:C Maximum on treatment inhibition, mean ± SD [5, 9]: 29 ± 4.8%
FXI:C Minimum on treatment RTB, mean ± SD [5, 9]: 0.71 ± 0.048
FXI:C Day 1 24 hours RTB, mean ± SD [5, 10]: 0.61 ± 0.051
FXI:C Day 1 24 hours inhibition, mean ± SD [5, 10]: 39 ± 5.1%
FXI:C Maximum on treatment inhibition, mean ± SD [5, 10]: 69 ± 7.0%
FXI:C Minimum on treatment RTB, mean ± SD [5, 10]: 0.31 ± 0.070
FXI:C Day 1 24 hours RTB, mean ± SD ([5]; Part A, single dose 80 mg, fed): 0.61 ± 0.066
FXI:C Day 1 24 hours inhibition, mean ± SD ([5]; Part A, single dose 80 mg, fed): 39 ± 6.6%
FXI:C Maximum on treatment inhibition, mean ± SD ([5]; Part A, single dose 80 mg, fed): 54 ± 8.9%
FXI:C Minimum on treatment RTB, mean ± SD ([5]; Part A, single dose 80 mg, fed): 0.46 ± 0.089
FXI:C Day 1 24 hours RTB, mean ± SD [5, 11]: 0.48 ± 0.057
FXI:C Maximum on treatment inhibition, mean ± SD [5, 11]: 78 ± 3.4%
FXI:C Minimum on treatment RTB, mean ± SD [5, 11]: 0.22 ± 0.034
FXI:C Day 1 24 hours RTB, mean ± SD [5, 12]: 0.26 ± 0.089
FXI:C Day 1 24 hours inhibition, mean ± SD [5, 12]: 74 ± 8.9%
time of maximal inhibition of FXI:C post‐dose [5, 13]: approximately 4 hours
FXI:C Minimum on treatment RTB, mean ± SD [5, 14]: 0.25 ± 0.077
FXI:C Day 1 24 hours RTB, mean ± SD ([5]; Part B, 80 mg QD, fed): 0.67 ± 0.035
FXI:C Day 14 24 hours RTB, mean ± SD ([5]; Part B, 80 mg QD, fed): 0.39 ± 0.111
FXI:C Minimum on treatment RTB, mean ± SD [5, 15]: 0.15 ± 0.052
FXI:C Day 1 24 hours RTB, mean ± SD ([5]; Part B, 150 mg QD, fed): 0.48 ± 0.112
FXI:C Day 14 24 hours RTB, mean ± SD ([5]; Part B, 150 mg QD, fed): 0.27 ± 0.096
FXI:C Day 1 24 hours RTB, mean ± SD ([5]; Part B, 250 mg QD, fed): 0.33 ± 0.065
FXI:C Day 14 24 hours RTB, mean ± SD ([5]; Part B, 250 mg QD, fed): 0.14 ± 0.053
time of maximal inhibition of FXI:C post‐dose [5, 16]: approximately 4 hours
thrombus formation [6]: significantly inhibited thrombus formation
